Literature values, collected in US8394287B2, “Non-aqueous heat transfer fluid and use thereof” (priority 2001, dated 2013).

System: human
Settings: Federal Register Vol. 63, No. 27, Feb. 10, 1998

**Q.** For `OCCO` [EG, ethylene glycol], which “lethal dose for a human” value is on record?
**A.** Its value is “approximately 1,570 mg/kg body mass”.
